For the assay, the target named is Platelet-activating factor receptor (Canis lupus familiaris). Kind of assay: PAF-antagonist activity determined in dog platelets by PAF-binding assay.
In the case of `Cc1nnc2n1-c1sc(C#CCn3c4c(c5cc(Cl)ccc53)CCCC4)cc1C(c1ccccc1Cl)=NC2`, the IC50 (commonly the concentration needed to halve the response being measured) came out at 90 nM.

Turning to `Cc1nnc2n1-c1sc(C#CCN3Cc4cccc5cccc(c45)C3=O)cc1C(c1ccccc1Cl)=NC2`, the IC50 is 4 nM.

`Cc1nnc2n1-c1sc(C#CCn3c(=O)n(-c4ccccc4)c4ccccc43)cc1C(c1ccccc1Cl)=NC2` yielded a half-maximal inhibitory concentration (IC50) of 1 nM.

In the case of `Cc1nnc2n1-c1sc(C#CCn3c4c(c5ccccc53)CCCCC4)cc1C(c1ccccc1Cl)=NC2`, the IC50 came out at 15 nM. Against the preceding compound, the IC50 is about 15-fold higher.

Turning to `Cc1nnc2n1-c1sc(C#CCn3c4c(c5ccccc53)CCCC4)cc1C(c1ccccc1Cl)=NC2`, the 50% inhibitory concentration (IC50) is 7 nM.

In the case of `Cc1nnc2n1-c1ccc(C#CCN3C(=O)CCc4ccccc43)cc1C(c1ccc(Cl)cc1)=NC2`, the IC50 worked out at 100 nM. This IC50 is about 14-fold higher than that of the compound before.

Take `Cc1nnc2n1-c1sc(C#CCN3C(=O)C(=O)c4ccccc43)cc1C(c1ccccc1Cl)=NC2`: the IC50 was determined as 7 nM.

As for `Cc1nnc2n1-c1sc(C#CCN3C(=O)CCc4ccccc43)cc1C(c1cc(O)ccc1Cl)=NC2`, the half-inhibitory concentration (IC50) came to 80 nM.

Regarding `Cc1nnc2n1-c1sc(C#CCN3C(=O)CCc4ccc(Cl)cc43)cc1C(c1ccccc1Cl)=NC2`, the concentration for half-maximal inhibition (IC50) is 7 nM.

Turning to `Cc1nnc2n1-c1ccc(C#CCN3C(=O)c4ccccc4C3=O)cc1C(c1ccccc1F)NC2` (stereo not given), the IC50 came out at 110 nM.

`Cc1nnc2n1-c1sc(C#CCn3c(=O)n(C)c(=O)c4ccccc43)cc1C(c1ccccc1Cl)=NC2` registered an IC50 of 0.6 nM.

`Cc1nnc2n1-c1ccc(C#CCN3C(=O)CCc4ccccc43)cc1C(c1ccccc1F)=N[C@H]2C` came in with an IC50 of 6 nM.

For the compound `Cc1nnc2n1-c1sc(C#CCn3c(=O)[nH]c4ccccc43)cc1C(c1ccccc1Cl)=NC2`, the IC50 was 9 nM. This IC50 is about 1.5-fold higher than that of the compound before.

For `Cc1nnc2n1-c1sc(C#CCn3c(=O)c4ccccc4c4ccccc43)cc1C(c1ccccc1Cl)=NC2O` (stereo not given), the IC50 came out at 25 nM.

In turn, `O=C1c2ccccc2C(=O)N1CC#Cc1ccc2c(c1)C(c1ccccc1F)=NCc1nncn1-2` registered an IC50 of 1000 nM. Compared with the last compound, the IC50 is about 40-fold higher.

Compound `O=c1c2ccccc2c2ccccc2n1CC#Cc1cc2c(s1)-n1c(CO)nnc1CN=C2c1ccccc1Cl` displayed an IC50 of 75 nM.

`O=C1CCc2ccccc2N1CC#Cc1ccc2c(c1)C(c1ccccc1F)=NCc1nnc(C(F)(F)F)n1-2` came in with an IC50 of 200 nM.

`Cc1nnc2n1-c1sc(C#CCn3c(=O)n(CCN(C)C)c4ccccc43)cc1C(c1ccccc1Cl)=NC2` had an IC50 of 30 nM.

The compound `CCc1nnc2n1-c1ccc(C#CCN3C(=O)c4ccccc4C3=O)cc1C(c1ccccc1F)=NC2` returned an IC50 of 100 nM.

`Cc1nnc2n1-c1ccc(I)cc1C(c1ccccc1F)=NC2` displayed an IC50 of 1000 nM. This IC50 is about 10-fold higher than that of the compound before.

Consider `Cc1nnc2n1-c1sc(C#CCn3c(=O)c4ccccc4c4ccccc4c3=O)cc1C(c1ccccc1Cl)=NC2`, for which the IC50 is 51 nM. Compared with the last compound, the IC50 is about 20-fold lower.

In the case of `Cc1nnc2n1-c1sc(C#CCC34CCCc5cccc(c53)NC4=O)cc1C(c1ccccc1Cl)=NC2` (stereo not given), the IC50 turned out to be 0.7 nM.

`Cc1nnc2n1-c1sc(C#CCn3cnc4ccccc43)cc1C(c1ccccc1Cl)=NC2`: the concentration for half-maximal inhibition (IC50) came out at 5 nM. Compared with the last compound, the IC50 is about 7.1-fold higher.

`Cc1nnc2n1-c1sc(C#CCOc3cccnc3)cc1C(c1ccccc1Cl)=NC2`: the IC50 worked out at 4 nM.

`Cc1nnc2n1-c1sc(C#CCN3C(=O)Cn4ccc5c(Cl)ccc3c54)cc1C(c1ccccc1Cl)=NC2` had an IC50 of 15 nM.

`Cc1nnc2n1-c1sc(I)cc1C(c1cc([N+](=O)[O-])ccc1Cl)=NC2` displayed an IC50 of 360 nM. Against the preceding compound, the IC50 is about 24-fold higher.

In turn, `Cc1nnc2n1-c1sc(C#CCn3c4c(c5cc(Cl)ccc53)CCCCC4)cc1C(c1ccccc1Cl)=NC2` returned an IC50 of 70 nM.

The compound `Cc1nnc2n1-c1sc(C#CCN3C(=O)COc4ccccc43)cc1C(c1ccccc1Cl)=NC2` came in with a concentration for half-maximal inhibition (IC50) of 0.7 nM.

For the compound `Cc1nnc2n1-c1sc(C#CCN3C(=O)CCc4ccccc43)cc1C(c1ccccc1Cl)=NC2`, the IC50 came to 0.2 nM.

In turn, `Cc1nnc2n1-c1sc(C#CCn3c(=O)c4ccccc4c4ccccc43)cc1C(c1ccccc1Cl)NC2=O` (stereo not given) yielded a half-maximal inhibitory concentration (IC50) of 560 nM.

`Cc1nnc2n1-c1sc(C#CCn3c(=O)c4ccccc4c4ccccc43)cc1C(c1ccccc1Cl)=NC2` yielded an IC50 of 13 nM.

For `Cc1nnc2n1-c1sc(C#CCn3ncc4ccccc43)cc1C(c1ccccc1Cl)=NC2`, the IC50 amounted to 1 nM. This IC50 is about 13-fold lower than that of the compound before.

`Cc1nnc2n1-c1sc(C#CCN3C(=O)c4cccc5cccc(c45)C3=O)cc1C(c1ccccc1Cl)=NC2`: the IC50 is 12 nM.

In the case of `Cc1nnc2n1-c1ccc(C#CCOc3cccnc3)cc1C(c1ccccc1Cl)=NC2`, the IC50 came out at 130 nM. Compared with the last compound, the IC50 is about 11-fold higher.

For the compound `Cc1nnc2n1-c1sc(C#CCN3C(=O)CCc4ccccc43)cc1C(c1cc([N+](=O)[O-])ccc1Cl)=NC2`, the 50% inhibitory concentration (IC50) came out at 75 nM.

Compound `C=C=Cn1c(=O)n(CC#Cc2cc3c(s2)-n2c(C)nnc2CN=C3c2ccccc2Cl)c2ccccc21` registered an IC50 of 6 nM.

Consider `Cc1nnc2n1-c1sc(C#CCn3c(=O)n(C)c4ccccc43)cc1C(c1ccccc1Cl)=NC2`, for which the IC50 turned out to be 0.3 nM.

On to `Cc1nnc2n1-c1sc(C#CCN3C(=O)CCc4cc(Cl)cc(Cl)c43)cc1C(c1ccccc1Cl)=NC2`, for which the half-maximal inhibitory concentration (IC50) was 9 nM.

Turning to `Cc1nnc2n1-c1sc(C#CCn3c(=O)n(CCN(C)C)c(=O)c4ccccc43)cc1C(c1ccccc1Cl)=NC2`, the IC50 came to 150 nM.

`Cc1nnc2n1-c1sc(C#CCn3ccc4ccccc4c3=O)cc1C(c1ccccc1Cl)=NC2` had an IC50 of 1 nM.

With `Cc1nnc2nc(-c3ccccc3F)c3cc(C#CCN4C(=O)c5ccccc5C4=O)ccc3n12`, the IC50 stood at 300 nM. Against the preceding compound, the IC50 is about 300-fold higher.

The compound `Cc1nnc2n1-c1sc(C#CCN3C(=O)COc4ccc(Cl)cc43)cc1C(c1ccccc1Cl)=NC2` registered an IC50 of 5 nM.

`Cc1nnc2n1-c1ccc(I)cc1C(c1ccccc1F)NC2` (stereo not given) registered an IC50 of 1000 nM.

In the case of `Cc1nnc2n1-c1sc(I)cc1C(c1ccccc1Cl)=NC2C` (stereo not given), the IC50 is 120 nM. Against the preceding compound, the IC50 is about 8.3-fold lower.

Turning to `Cc1nnc2n1-c1ccc(C#CCN3C(=O)c4ccccc4C3=O)cc1C(c1ccccc1Cl)=NC2`, the IC50 was 20 nM.

In turn, `Cc1nnc2n1-c1sc(C#CCN3C(=O)NCc4ccccc43)cc1C(c1ccccc1Cl)=NC2` gave an IC50 of 6 nM. Compared with the last compound, the IC50 is about 3.3-fold lower.

`Cc1nnc2n1-c1sc(C#CCn3c4ccccc4c4ccccc43)cc1C(c1ccccc1Cl)=NC2` showed an IC50 of 120 nM.

In turn, `Cc1nnc2n1-c1sc(C#CCN3C(=O)Cc4ccccc43)cc1C(c1ccccc1Cl)=NC2` came in with a concentration for half-maximal inhibition (IC50) of 3 nM.

For `Cc1nnc2n1-c1ccc(I)cc1C(c1ccccc1Cl)=NC2`, the concentration for half-maximal inhibition (IC50) came to 1000 nM.

`Cc1nnc2n1-c1ccc(C#CCN3C(=O)c4ccccc4C3=O)cc1C(c1ccccc1F)=NC2` showed an IC50 of 10 nM.

On to `Cc1nnc2n1-c1sc(C#CCN3C(=O)c4cccc5cccc3c45)cc1C(c1ccccc1Cl)=NC2`, for which the IC50 amounted to 5 nM. This IC50 lies about 2-fold lower than the previous one.

As to `Cc1nnc2n1-c1sc(C#CCn3c(=O)c4cc(Cl)ccc4c4ccc(Cl)cc43)cc1C(c1ccccc1Cl)=NC2`, the IC50 was 30 nM.

With `Cc1nnc2n1-c1sc(C#CCN3C(=O)CC(C)(C)c4ccccc43)cc1C(c1ccccc1Cl)=NC2`, the IC50 worked out at 12 nM.

Regarding `Cc1nnc2n1-c1sc(C#CCn3c(=O)ccc4ccccc43)cc1C(c1ccccc1Cl)=NC2`, the IC50 amounted to 2 nM.

`Cc1nnc2n1-c1ccc(C#CCN3C(=O)CCc4ccccc43)cc1C(c1ccccc1F)=NC2`: the IC50 is 20 nM.

The compound `COc1cc2c(cc1OC)C(=O)N(CC#Cc1cc3c(s1)-n1c(C)nnc1CN=C3c1ccccc1Cl)CC2` registered a concentration for half-maximal inhibition (IC50) of 25 nM. The IC50 values of the last two compounds are within 1.5-fold of each other.

`O=C1CCc2ccccc2N1CC#Cc1ccc2c(c1)C(c1ccc(Cl)cc1)=NCc1nnc(C(F)(F)F)n1-2`: the IC50 turned out to be 1000 nM.

On to `Cc1nnc2n1-c1sc(C#CCn3c(=O)c4ccccc4c4ccccc43)cc1C(c1cc(O)ccc1Cl)=NC2`, for which the IC50 turned out to be 15 nM.

Compound `Cc1nnc2n1-c1sc(C#CCN3C(=O)C4(C)CCCc5cccc3c54)cc1C(c1ccccc1Cl)=NC2` (stereo not given) displayed an IC50 of 12 nM. This IC50 and that of the compound before are within 1.5-fold of each other.

The compound `Cc1nnc2n1-c1sc(C#CCn3c(=O)c4ccccc4c4ccccc43)cc1C(c1ccccc1Cl)=NC2C` (stereo not given) gave an IC50 of 250 nM.

The values above are taken from BindingDB's records for doi:10.1021/jm00107a048 (Roche Research Center, 1991).
